Our source for the TGI values is PubChem BioAssay (NCI).

Molecules are shown by their SMILES.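 Cultured in 96-well plates, cells were exposed to test compound for 48 hours across five concentrations. The concentration for full growth arrest is given as TGI.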

Among the test systems are A549 NSCLC; ACHN renal; CAKI-1 renal; DU-145 prostate; EKVX NSCLC; HCT-15 colon; KM12 colon; M14 melanoma; MCF7 breast; MDA-MB-231 breast; MDA-N; NCI-H23 lung; OVCAR-4 ovarian; SF-268 CNS; SK-OV-3 ovarian; SNB-19 CNS; TK-10 renal; UACC-257 melanoma; UACC-62 melanoma.
Test in all cases: inhibition of tumour cell growth, NCI panel, 48 h

Turning to `COC1=C2CC(C)CC(OC)C(OC(=O)CN)[C@H](C)/C=C(\C)C(OC(N)=O)C(OC)/C=C\C=C(/C)C(=O)NC(=CC1=O)C2=O` (stereo partly drawn), the TGI in the assay on A549 NSCLC is 21.8 µM; in the assay on ACHN renal, 13.4 µM; in the assay on CAKI-1 renal, 17 µM; in the assay with DU-145 prostate, 16.4 µM; with EKVX NSCLC it was 13.1 µM; in the assay on HCT-15 colon, 12.6 µM. Besides, the TGI was found to be 4.29 µM with KM12 colon; 10.8 µM in the assay with M14 melanoma; 2.01 µM in the assay with MCF7 breast; 1.6 µM in the assay with MDA-MB-231 breast; 3.34 µM in the assay on MDA-N; 1.77 µM in the assay on NCI-H23 lung. For the same compound, the TGI with OVCAR-4 ovarian came out at 8.38 µM; in the assay on SF-268 CNS, 16.4 µM; with SK-OV-3 ovarian, 16.7 µM; in the assay on SNB-19 CNS it was 20.7 µM; in the assay with TK-10 renal, 15.6 µM; with UACC-257 melanoma, 1.02 µM. The TGI in the assay with UACC-62 melanoma is 1.78 µM.
As to `COc1ccc(CCNC(=O)c2ccccc2C2c3ccc(OCc4ccccc4)cc3Oc3cc(OCc4ccccc4)ccc32)cc1OC`, the TGI with A549 NSCLC, with ACHN renal, in the assay on CAKI-1 renal, in the assay with DU-145 prostate, in the assay on EKVX NSCLC and with HCT-15 colon was more than 100 µM throughout. Also, the TGI with KM12 colon, in the assay on M14 melanoma, with MCF7 breast, in the assay on MDA-MB-231 breast, in the assay on MDA-N and with NCI-H23 lung was more than 100 µM each time. Moreover, the TGI with OVCAR-4 ovarian, in the assay with SF-268 CNS, in the assay on SK-OV-3 ovarian, in the assay on SNB-19 CNS, in the assay with TK-10 renal and in the assay with UACC-257 melanoma was more than 100 µM each time. In addition, in the assay with UACC-62 melanoma, the TGI was more than 100 µM.
As to `CCOC(=O)CSC1NC(C(=O)OC)CC1OC` (stereo not drawn), the TGI in the assay with A549 NSCLC, in the assay on ACHN renal, in the assay on CAKI-1 renal, in the assay on DU-145 prostate, with EKVX NSCLC and with HCT-15 colon was more than 100 µM in each case. For the same compound, the TGI in the assay on KM12 colon, with M14 melanoma, in the assay with MCF7 breast, with MDA-MB-231 breast, with MDA-N and in the assay on NCI-H23 lung was more than 100 µM each time. Also, the TGI in the assay with OVCAR-4 ovarian, in the assay with SF-268 CNS, with SK-OV-3 ovarian, with SNB-19 CNS, with TK-10 renal and in the assay on UACC-257 melanoma was more than 100 µM throughout. The TGI in the assay on UACC-62 melanoma was more than 100 µM.
Regarding `Cc1ccc(S(=O)(=O)N/N=C2\CCC3(O)CC2(C)CCC2C3CC2(C)C)cc1` (stereo not drawn), the TGI in the assay on A549 NSCLC, in the assay on ACHN renal, with CAKI-1 renal, in the assay with DU-145 prostate, in the assay on EKVX NSCLC and in the assay on HCT-15 colon was more than 100 µM throughout. Besides, the TGI in the assay with KM12 colon, in the assay on M14 melanoma, in the assay on MCF7 breast, in the assay with MDA-MB-231 breast, in the assay with MDA-N and with NCI-H23 lung was more than 100 µM in each case. The TGI with OVCAR-4 ovarian was more than 100 µM; in the assay with SF-268 CNS it was more than 100 µM; with SK-OV-3 ovarian it was more than 100 µM; in the assay with SNB-19 CNS, more than 100 µM; in the assay on TK-10 renal, 75.8 µM; in the assay on UACC-257 melanoma it was more than 100 µM. This compound also showed a TGI in the assay on UACC-62 melanoma of more than 100 µM.
Take `COC(=O)c1cc(O)c(O)c(O)c1-c1c(O)c(O)c(O)c(SC[C@H](NC(=O)OCc2ccccc2)C(=O)OCc2ccccc2)c1C(=O)OC`: the TGI is 36.3 µM with A549 NSCLC; 61.1 µM in the assay on ACHN renal; 35.2 µM in the assay with CAKI-1 renal; more than 100 µM in the assay with DU-145 prostate; 50.8 µM with EKVX NSCLC; more than 100 µM in the assay with HCT-15 colon. The TGI in the assay on KM12 colon was more than 100 µM; in the assay on M14 melanoma it was 36.8 µM; in the assay on MCF7 breast, 43.1 µM; in the assay on MDA-MB-231 breast it was 39 µM; with MDA-N, 47.5 µM; in the assay on NCI-H23 lung, 50.3 µM. Also, the TGI in the assay with OVCAR-4 ovarian is 89.9 µM; in the assay on SF-268 CNS it was more than 100 µM; in the assay with SK-OV-3 ovarian, more than 100 µM; in the assay with SNB-19 CNS it was more than 100 µM; in the assay with TK-10 renal, more than 100 µM; in the assay with UACC-257 melanoma, more than 100 µM. Besides, the TGI in the assay with UACC-62 melanoma was found to be 64.8 µM.
On to `Cc1cn(Cc2cccc(C3=NCCCN3)c2)c(=O)n(Cc2cccc(C3=NCCCN3)c2)c1=O`, for which the TGI in the assay with A549 NSCLC, in the assay with ACHN renal, with CAKI-1 renal, with DU-145 prostate, in the assay with EKVX NSCLC and in the assay on HCT-15 colon was more than 100 µM each time. Also, the TGI in the assay with KM12 colon, in the assay on M14 melanoma, with MCF7 breast, in the assay with MDA-MB-231 breast, in the assay on MDA-N and in the assay with NCI-H23 lung was more than 100 µM throughout. For the same compound, the TGI in the assay on OVCAR-4 ovarian, in the assay on SF-268 CNS, in the assay on SK-OV-3 ovarian, in the assay with SNB-19 CNS, with TK-10 renal and in the assay with UACC-257 melanoma was more than 100 µM throughout. Further, the TGI with UACC-62 melanoma was more than 100 µM.
Regarding `COc1c(C(C)(C)C)cc(CC2C(=O)C=CC2=O)cc1C(C)(C)C`, the TGI in the assay with A549 NSCLC amounted to 55.4 µM; in the assay on ACHN renal it was 22.5 µM; with CAKI-1 renal it was 30.5 µM; in the assay with DU-145 prostate, 15.5 µM; in the assay with EKVX NSCLC, 37.7 µM; in the assay with HCT-15 colon, 37.6 µM. Moreover, the TGI in the assay on KM12 colon turned out to be 34 µM; in the assay with M14 melanoma it was 39.6 µM; with MCF7 breast it was 45.5 µM; in the assay on MDA-MB-231 breast, 36.5 µM; in the assay on MDA-N, 39.6 µM; with NCI-H23 lung it was 48.9 µM. The TGI came out at 89.5 µM in the assay on OVCAR-4 ovarian; 40 µM with SF-268 CNS; 56 µM in the assay on SK-OV-3 ovarian; 33.9 µM in the assay on SNB-19 CNS; 12.1 µM with TK-10 renal; 32.4 µM with UACC-257 melanoma. Also, the TGI with UACC-62 melanoma was 33.2 µM.
